Data taken from paper PMC12284513, “Unique structural features define the decarboxylation activity of a CYP152 fatty acid decarboxylase from Lacicoccus alkaliphilus” (The Journal of Biological Chemistry, 2025).
“And” between values parts separate entries of the source, which are not always exact repeats. Equal values may be shown once. Read-outs that look alike come from different tables or passages of the source.

What was measured:
[1] = system: OleTJE L176I; assay: Fatty acid bioconversion with H2O2 as co-substrate (alkene by GC-MS, hydroxy products by HPLC-MS); assay type: biochemical, Jeotgalicoccus sp. 8456; details: 200 μM substrate, 400 μM H2O2
Procedure: A reaction was typically quenched by adding 2-fold reaction volume of ethyl acetate which contained 30 μM of tetradecane as an internal standard. The reaction mixtures were vortexed for 1 min and then centrifuged at 12,000 rpm, 4 °C for 10 min to separate an organic and an aqueous phase. The organic phase was injected into an Agilent gas chromatography system (GC-MS) (Agilent 7890B equipped with Agilent 5977B MSD) equipped with a HP5-MS column (30 m × 0.25 mm × […]) (Agilent), and helium was used as a carrier gas. The oven conditions for C10FA and 1-nonene (C9 alkene) were ramped up from 60 to 240 °C with a rate of 19 ° C min^−1 and held at 240 °C for 1 min. […] For C18FA and 1-heptadecene (C17 alkene), the oven was ramped up from 60 to 250 °C with a rate of 22 °C min^−1 and hold at 250 °C for 4 min. For C20FA and 1-nonadecene (C19 alkene), the oven was ramped up from 100 to 250 °C with a rate of 23 °C min^−1 and held at 250 °C for 6 min. The response of target compounds was normalized with signals of the internal standard. The concentration of each compound was calculated based on a standard calibration curve.
For analyzing hydroxylated products of fatty acids, the reactions were quenched by adding an equal volume of acetonitrile, centrifuged, and filtrated. The analytes (10 μl) were injected into a liquid chromatography coupled with diode array and single quadrupole mass spectroscopy detection (LC-DAD/MS) (Agilent 1290 Infinity II LC System equipped with DAD, Single Quadrupole Mass Spectrometers system). A Zorbax eclipse plus C18 column (5 μm, 4.6 × 250 mm) (Agilent Technology) was used for separation. The mobile phase system A was water with 0.1% (v/v) formic acid, and system B was acetonitrile with 0.1% (v/v) formic acid.
All fatty acids were prepared in absolute EtOH at 20 mM as stock solutions. The reaction was carried out in 50 mM NaH2PO4 buffer with 300 mM NaCl, pH 7.5, with 2.5 or 10% (v/v) of EtOH, 200 μM of a substrate, and 400 μM of H2O2. The reactions were performed at 25 °C for 1 h, and then the alkene product was measured using GC-MS after the reactions were quenched and extracted with two-fold volume of ethyl acetate.
(§1) Site-directed mutagenesis of I178L of OleTLA and […] of OleTJE was done with overlaping PCR that used OleTLA or OleTJE plasmids as templates (Table S4). The PCR products were treated with DpnI in cut smart buffer at 37 °C for 16 h, transformed into E. coli XL−1 blue competent cells and grown at 37 °C on LB agar containing 50 μg/ml ampicillin. The plasmids of selected colonies were extracted for sequence verification. The plasmid containing the correct sequence was transformed into E. coli BL21 (DE3) for enzyme expression. The expression and purification methods of variants were the same as those of wild-type OleTLA and OleTJE.

[2] = biological target: T1, OleTJE (Jeotgalicoccus sp. ATCC 8456, UniProt E9NSU2); set-up: method as in PMID 28276499; details: C14FA decarboxylation; cited from earlier work
T1 sequence (E9NSU2 1-422): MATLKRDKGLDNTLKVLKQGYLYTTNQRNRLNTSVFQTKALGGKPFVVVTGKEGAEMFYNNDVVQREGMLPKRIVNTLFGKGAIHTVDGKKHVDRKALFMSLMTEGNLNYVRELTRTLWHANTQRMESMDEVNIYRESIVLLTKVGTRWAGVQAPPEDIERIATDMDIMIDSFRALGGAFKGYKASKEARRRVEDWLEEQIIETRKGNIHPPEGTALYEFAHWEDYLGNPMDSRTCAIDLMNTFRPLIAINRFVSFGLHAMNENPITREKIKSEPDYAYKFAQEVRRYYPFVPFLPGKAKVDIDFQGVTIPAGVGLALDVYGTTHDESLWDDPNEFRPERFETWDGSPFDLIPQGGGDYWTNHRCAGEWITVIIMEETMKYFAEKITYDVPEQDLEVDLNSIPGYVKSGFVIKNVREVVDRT

[3] = biological target: T2, OleTLA (Lacicoccus alkaliphilus, UniProt A0A1M7CBV6); assay: Steady-state kinetics of C16FA decarboxylation with H2O2, C15 alkene by GC-MS; assay type: biochemical; details: for kcat / Km: 400 μM H2O2, pH 7.5, 25 °C
T2 sequence (A0A1M7CBV6 1-424): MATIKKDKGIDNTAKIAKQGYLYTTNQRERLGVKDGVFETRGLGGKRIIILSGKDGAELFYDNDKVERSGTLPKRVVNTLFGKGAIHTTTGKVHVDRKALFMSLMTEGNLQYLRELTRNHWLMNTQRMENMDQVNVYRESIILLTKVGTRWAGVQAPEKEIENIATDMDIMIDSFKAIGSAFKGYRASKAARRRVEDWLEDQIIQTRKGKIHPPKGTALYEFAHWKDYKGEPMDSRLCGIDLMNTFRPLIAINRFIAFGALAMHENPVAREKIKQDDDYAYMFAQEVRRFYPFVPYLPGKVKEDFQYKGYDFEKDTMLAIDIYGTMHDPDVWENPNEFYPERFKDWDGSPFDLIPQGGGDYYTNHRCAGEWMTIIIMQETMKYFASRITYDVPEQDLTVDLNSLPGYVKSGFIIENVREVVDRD
Procedure: (§2) Under specific times between 0.1 to 2 min, the reaction samples were taken and quenched by adding an equal volume of ethyl acetate. The ethyl acetate layer would contain the C15 alkene product, which was measured using GC-MS. Values of initial rates were plotted against substrate concentrations to analyze for Km and Vmax values using the Michaelis–Menten equation by GraphPad Prism software version 10.

[4] = biological target: T1, OleTJE; assay: as above; assay type: biochemical, Jeotgalicoccus sp. 8456; details: for Km / kcat: 400 μM H2O2, pH 7.5, 25 °C
Procedure: as §2

[5] = biological target: OleTLA I178L (Lacicoccus alkaliphilus, UniProt A0A1M7CBV6, I178L); assay: as above; assay type: biochemical; details: 10% (v/v) EtOH, 400 μM H2O2, pH 7.5, 25 °C
Procedure: as §2, §1

[6] = biological target: T2, OleTLA; assay: Substrate binding by isothermal titration calorimetry (ITC); details: pH 7.5, 25 °C
Procedure: (§3) The enzyme solution was filled into a syringe while the C16FA solution was filled into the ITC cell. The reactions were constantly stirred at 750 rpm while controlling the temperature at 25 °C during titration. A total of 19 enzyme injections were added into the substrate solution. […] For the other 18 injections, 2 μl of the enzyme solution was added with […] to ensure that the conditions are under equilibrium. The data were processed and analyzed using the Microcal PEAQ-ITC analysis software to calculate the Kd value based on a single-site binding model.

[7] = biological target: T1, OleTJE; assay: as above; set-up: species or system Jeotgalicoccus sp. 8456; details: pH 7.5, 25 °C
Procedure: as §3, with “The” for “The enzyme solution was filled into a syringe while the C16FA solution was filled into the ITC cell. The”

[8] = biological target: T2, OleTLA; assay: Equilibrium substrate binding by heme spectral change (absorbance at 390 nm); details: read-out: Kd from absorbance changes at 390 nm

## CCCCCCCCCCCCCC(=O)O [C14FA, tetradecanoic acid]
[1]
  Decarboxylation activity of OleTJE L176I compared to that of OleTJE wild type: less than 1%
[2]
  kcat: 1.18 s⁻¹

## CCCCCCCCCCCCCCCC(=O)O [C16FA, hexadecanoic acid]
[3]
  Enhancement of kcat in 10% (v/v) EtOH compared to 2.5% (v/v) EtOH: around 4.3 fold
[3]; 2.5% (v/v) EtOH
  kcat: 0.343 ± 0.0083 s⁻¹
[3]; 2.5% (v/v) EtOH, read-out: KM
  Km: 5.4 ± 0.6 µM
[3]; 10% (v/v) EtOH
  Km: 16.7 ± 0.6 µM
  kcat: 1.47 ± 0.0267 s⁻¹
[4]
  Enhancement of kcat in 10% (v/v) EtOH compared to 2.5% (v/v) EtOH: ~1.4 fold
[4]; 2.5% (v/v) EtOH
  Km: 8.6 ± 1.4 µM
  kcat: 0.647 ± 0.015 s⁻¹
[4]; 10% (v/v) EtOH
  Km: 9.6 ± 0.6 µM
  kcat: 0.918 ± 0.0033 s⁻¹
[5]
  Km: 25 ± 0.6 µM
  kcat: 1.6 ± 0.0417 s⁻¹
[6]; 2.5% (v/v) EtOH
  Kd: 950 ± 140 nM
  TΔS: 38.10 ± 2.65 kcal/mol
  ΔG: -8.22 ± 0.08 kcal/mol
  ΔH: 29.97 kcal/mol and 29.97 ± 2.93 kcal/mol
[6]; 10% (v/v) EtOH
  Kd: 1260 ± 230 nM
  TΔS: 58.93 ± 2.00 kcal/mol
  ΔG: -8.06 ± 0.11 kcal/mol
  ΔH: 50.83 kcal/mol and 50.83 ± 2.10 kcal/mol
[7]; 2.5% (v/v) EtOH
  Kd: 1930 ± 160 nM
  TΔS: 16.13 ± 2.15 kcal/mol
  ΔG: -7.78 ± 0.05 kcal/mol
[7]; 10% (v/v) EtOH
  Kd: 440 ± 10 nM
  TΔS: -5.15 ± 2.74 kcal/mol
  ΔG: -8.67 ± 0.01 kcal/mol
  ΔH: -12.19 ± 5.11 kcal/mol
[8]; 2.5% (v/v) EtOH
  Kd: 320 nM
[8]; 10% (v/v) EtOH
  Kd: 530 nM
[8]; buffer (0% (v/v) EtOH)
  Kd: 370 nM
[1]
  Decarboxylation activity of OleTJE L176I compared to that of OleTJE wild type: less than 5%
